Laboratory results taken from US20230095026A1, “METHOD FOR STIMULATING AND INDUCING CHANGES IN ENVIRONMENT AROUND AGED SKIN CELLS” (AMOREPACIFIC CORPORATION, priority 2019, published 2023).

How the values were obtained:
pigment-forming cells = assay: Change in morphology and cell number of UVB-aged pigment-forming cells, SA-β-gal staining; type: cell-based, human
Protocol: Subsequently, the cells were treated with a compound represented by Chemical Formula E (Sigma-Aldrich Co., Ltd.).

Fibroblast cells = assay: Change in the number of UVB-aged fibroblast cells, SA-β-gal staining; type: cell-based, human

## O=C(O)[C@]1(O)C[C@@H](O)[C@@H](O)[C@H](O)C1 [Chemical Formula E]
pigment-forming cells; UVB-aged pigment-forming cells treated with the compound, FIGS. 1 and 2
  number of cells: the number of cells increased again
pigment-forming cells; UVB-aged pigment-forming cells, FIG. 3
  ratio of the number of the aged cells stained with SA-β-gal to the total number of cells: decreased depending on the concentration
Fibroblast cells; UVB-aged fibroblasts treated with the compound, FIGS. 4 and 5
  number of cells: the number of cells increased again depending on the concentration
Fibroblast cells; UVB-aged fibroblasts, FIG. 6
  ratio of the number of the aged cells stained with SA-β-gal to the total number of cells: decreased depending on the concentration
